Experimental data published in PubChem BioAssay AID1845200 (Molecular Pharmacology Branch, DTP, NCI, 2023).
The source made the active and inactive calls. How the source made its calls: active means viability on the fitted dose curve at most 10% of control; inactive means the rest.

Tested on: ASPS-1 complex tumor spheroids, viability
Assay: Anticancer human tumor ASPS-1 cell line growth inhibition;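 further: spheroids exposed to agents for 7 days after 3 days of growth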;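 on viability, T/C: 100% = DMSO vehicle treated spheroids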
Details: for IC50: curve of first compound; for viability, T/C: stronger effect = lower value
Method in brief: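 Single agents and combinations were tested on spheroids built from tumor cells plus HUVEC and hMSC, at half-log dilutions starting at or near clinical Cmax, else 10 microM; final DMSO 0.25% (v/v).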

[1] = second compound 1 µM, first compound 0.00949 µM
[2] = second compound 1 µM, first compound 0.03 µM
[3] = second compound 1 µM, first compound 0.0949 µM
[4] = second compound 1 µM, first compound 0.3 µM
[5] = second compound 1 µM, first compound 0.949 µM
[6] = second compound 1 µM, first compound 3 µM
[7] = second compound 3.16 µM, first compound 0.00949 µM
[8] = second compound 3.16 µM, first compound 0.03 µM
[9] = second compound 3.16 µM, first compound 0.0949 µM
[10] = second compound 3.16 µM, first compound 0.3 µM
[11] = second compound 3.16 µM, first compound 0.949 µM
[12] = second compound 3.16 µM, first compound 3 µM
[13] = second compound 10 µM, first compound 0.00949 µM
[14] = second compound 10 µM, first compound 0.03 µM
[15] = second compound 10 µM, first compound 0.0949 µM
[16] = second compound 10 µM, first compound 0.3 µM
[17] = second compound 10 µM, first compound 0.949 µM
[18] = second compound 10 µM, first compound 3 µM
[19] = second compound 31.6 µM, first compound 0.00949 µM
[20] = second compound 31.6 µM, first compound 0.03 µM
[21] = second compound 31.6 µM, first compound 0.0949 µM
[22] = second compound 31.6 µM, first compound 0.3 µM
[23] = second compound 31.6 µM, first compound 0.949 µM
[24] = second compound 31.6 µM, first compound 3 µM
[25] = second compound 100 µM, first compound 0.00949 µM
[26] = second compound 100 µM, first compound 0.03 µM
[27] = second compound 100 µM, first compound 0.0949 µM
[28] = second compound 100 µM, first compound 0.3 µM
[29] = second compound 100 µM, first compound 0.949 µM
[30] = second compound 100 µM, first compound 3 µM

## CNCc1ccc(-c2cc(-c3nc(-c4ccc(S(=O)(=O)C(C)C)cc4)cnc3N)on2)cc1 + Cn1nnc2c(C(N)=O)ncn2c1=O
Second compound 1 µM
  IC50: 0.565 µM
Second compound 3.16 µM
  IC50: 0.738 µM
Second compound 10 µM
  IC50: 0.259 µM
Second compound 31.6 µM
  IC50: 0.292 µM
Second compound 100 µM
  IC50: 0.184 µM
[1]
  viability, T/C: 104%
[2]
  viability, T/C: 104%
[3]
  viability, T/C: 105%
[4]
  viability, T/C: 72.5%
[5]
  viability, T/C: 31.1%
[6]
  viability, T/C: 7.06%
[7]
  viability, T/C: 109%
[8]
  viability, T/C: 106%
[9]
  viability, T/C: 92.6%
[10]
  viability, T/C: 69.3%
[11]
  viability, T/C: 45.6%
[12]
  viability, T/C: 9.69%
[13]
  viability, T/C: 98.8%
[14]
  viability, T/C: 103%
[15]
  viability, T/C: 87%
[16]
  viability, T/C: 40%
[17]
  viability, T/C: 30.4%
[18]
  viability, T/C: 6.72%
[19]
  viability, T/C: 88.5%
[20]
  viability, T/C: 78.9%
[21]
  viability, T/C: 67.4%
[22]
  viability, T/C: 48.7%
[23]
  viability, T/C: 31.2%
[24]
  viability, T/C: 12.9%
[25]
  viability, T/C: 79.1%
[26]
  viability, T/C: 78.4%
[27]
  viability, T/C: 58.2%
[28]
  viability, T/C: 41.6%
[29]
  viability, T/C: 21.7%
[30]
  viability, T/C: 1.51%

## Cn1ncnc1[C@H]1c2n[nH]c(=O)c3cc(F)cc(c23)N[C@@H]1c1ccc(F)cc1 + Cn1nnc2c(C(N)=O)ncn2c1=O
Second compound 1 µM
  IC50: > 3 µM
Second compound 3.16 µM
  IC50: > 3 µM
Second compound 10 µM
  IC50: > 3 µM
Second compound 31.6 µM
  IC50: > 3 µM
Second compound 100 µM
  IC50: > 3 µM
[1]
  viability, T/C: 98.8%
[2]
  viability, T/C: 98.9%
[3]
  viability, T/C: 97.5%
[4]
  viability, T/C: 103%
[5]
  viability, T/C: 96.3%
[6]
  viability, T/C: 74.1%
[7]
  viability, T/C: 99.7%
[8]
  viability, T/C: 95%
[9]
  viability, T/C: 96.2%
[10]
  viability, T/C: 95.8%
[11]
  viability, T/C: 91.1%
[12]
  viability, T/C: 67.8%
[13]
  viability, T/C: 86.2%
[14]
  viability, T/C: 89.6%
[15]
  viability, T/C: 80.1%
[16]
  viability, T/C: 83.4%
[17]
  viability, T/C: 71.7%
[18]
  viability, T/C: 61.1%
[19]
  viability, T/C: 78.5%
[20]
  viability, T/C: 76.3%
[21]
  viability, T/C: 76%
[22]
  viability, T/C: 67%
[23]
  viability, T/C: 56.5%
[24]
  viability, T/C: 53.2%
[25]
  viability, T/C: 56.4%
[26]
  viability, T/C: 50.8%
[27]
  viability, T/C: 52.2%
[28]
  viability, T/C: 58.7%
[29]
  viability, T/C: 54.5%
[30]
  viability, T/C: 50.8%

## O=C(c1cc(Cc2n[nH]c(=O)c3ccccc23)ccc1F)N1CCN(C(=O)C2CC2)CC1 + Cn1nnc2c(C(N)=O)ncn2c1=O
Second compound 1 µM
  IC50: > 30 µM
Second compound 3.16 µM
  IC50: > 30 µM
Second compound 10 µM
  IC50: > 30 µM
Second compound 31.6 µM
  IC50: > 30 µM
Second compound 100 µM
  IC50: 3.4 µM
[3]
  viability, T/C: 94.4%
[4]
  viability, T/C: 83.3%
[5]
  viability, T/C: 92.6%
[6]
  viability, T/C: 82.5%
Second compound 1 µM, first compound 9.49 µM
  viability, T/C: 95.6%
Second compound 1 µM, first compound 30 µM
  viability, T/C: 79.2%
[9]
  viability, T/C: 97.6%
[10]
  viability, T/C: 94.2%
[11]
  viability, T/C: 115%
[12]
  viability, T/C: 95.6%
Second compound 3.16 µM, first compound 9.49 µM
  outcome: inactive
Second compound 3.16 µM, first compound 30 µM
  viability, T/C: 76%
[15]
  viability, T/C: 85.8%
[16]
  viability, T/C: 82.4%
[17]
  viability, T/C: 82.8%
[18]
  viability, T/C: 78.1%
Second compound 10 µM, first compound 9.49 µM
  viability, T/C: 76.7%
Second compound 10 µM, first compound 30 µM
  viability, T/C: 75.5%
[21]
  viability, T/C: 78.8%
[22]
  viability, T/C: 70.5%
[23]
  viability, T/C: 81.9%
[24]
  viability, T/C: 72.3%
Second compound 31.6 µM, first compound 9.49 µM
  viability, T/C: 72.4%
Second compound 31.6 µM, first compound 30 µM
  viability, T/C: 58.6%
[27]
  viability, T/C: 68.7%
[28]
  viability, T/C: 61.1%
[29]
  viability, T/C: 51%
[30]
  viability, T/C: 54.3%
Second compound 100 µM, first compound 9.49 µM
  viability, T/C: 44.3%
Second compound 100 µM, first compound 30 µM
  viability, T/C: 49.1%
